Results as given in patent US8637665B2, “Pyrrolo[2,L-C][L,4]benzodiazepine-benzothiazole or benzoxazole conjugates linked through piperazine moiety and process for the preparation thereof” (priority 2010, dated 2014).
Like-named read-outs stand apart in the source and are kept apart here.

Key:
[1] = tested on: eight tumour cells lines derived from seven cancer types; assay: In vitro anticancer activity, SRB assay, panel of eight cell lines; assay type: cell-based; settings: Homo sapiens, range over the eight cell lines per compound; read-out: GI50 range against cancer cell lines
Procedure: Anticancer activity: In vitro biological activity studies were carried out at the Advance Center for Treatment Research & Education in Cancer (ACTREC), Navi Mumbai.
The compounds were evaluated for in vitro anticancer activity against eight tumour cells lines derived from seven cancer types (non-small-cell lung, colon, oral, cervix, ovarian, prostate, and breast cancer) as shown in Table 2. For each compound, dose response curves for each cell line were measured at a minimum of five concentrations at 10 fold dilutions. A protocol of 48 h continuous drug exposure was used and a sulforhodamine B (SRB) protein assay was used to estimate cell viability or growth. The concentration causing 50% cell growth inhibition (GI50) and 50% cell death (LC50, −50% growth) compared with the control was calculated. Compounds 9a-9l have been evaluated for their in vitro cytotoxicity in eight cell lines from seven human cancer types of lung (Hop-62, A-549) colon (COLO-205) cervix (Si—Ha), ovary (A-2780), prostate (PC3) breast (MCF7), oral (KB). The results are expressed as percent of cell growth determined relative to that of untreated control cells (Table-8 and table-9).

[2] = tested on: A 2780 (ovary cancer) cell line; assay: cells; assay type: cell-based; settings: for GI50: mean of three determinations; for CC50: read-out: LC50 A 2780, 50% cell death
Summary of the method: (§1)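 Dose-response curves were measured at five or more concentrations spaced at 10-fold dilutions, with continuous drug exposure for 48 h. Cell growth was estimated by sulforhodamine B protein staining, and GI50 and LC50 (−50% growth) were calculated relative to untreated control cells.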

[3] = tested on: A 549 (lung cancer) cell line; assay: cells; assay type: cell-based; settings: for GI50: mean of three determinations
Summary of the method: as §1

[4] = tested on: SiHa (cervix cancer) cell line; assay: cells; assay type: cell-based; settings: for GI50: mean of three determinations; for LC50 (concentration causing 50% cell death): read-out: LC50 SiHa, 50% cell death
Summary of the method: as §1

[5] = tested on: MCF 7 (breast cancer) cell line; assay: cells; assay type: cell-based; settings: for GI50: read-out: GI50 MCF 7; for LC50 (concentration causing 50% cell death): read-out: LC50 MCF 7, 50% cell death
Summary of the method: as §1

[6] = tested on: HOP 62 (lung cancer) cell line; assay: cells; assay type: cell-based; settings: for GI50: read-out: GI50 HOP 62, mean of three determinations
Summary of the method: (§2)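 Read-out was sulforhodamine B protein staining after 48 h of continuous compound exposure. Growth is expressed as percent of untreated controls, from which the concentrations giving 50% growth inhibition (GI50) and 50% cell death (LC50) were derived.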

[7] = tested on: Colo 205 (colon cancer) cell line; assay: cells; assay type: cell-based; settings: for GI50: mean of three determinations; for CC50: read-out: LC50 Colo 205
Summary of the method: as §1

[8] = tested on: PC 3 (prostate cancer) cell line; assay: cells; assay type: cell-based; settings: for GI50: read-out: GI50 PC 3; for CC50: read-out: LC50 Pc 3, 50% cell death
Summary of the method: as §1

[9] = tested on: duplex-form calf thymus DNA (CT-DNA); assay: Thermal denaturation studies with calf thymus DNA (DNA binding affinity); settings: [PBD]:[DNA] 1:5, CT-DNA 100 μM, ligand 20 μM, pH 7.00
Summary of the method: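 CT-DNA (100 μm in phosphate) with PBD (20 μm; 1:5 PBD/DNA molar ratio) in 10 mM sodium phosphate, 1 mM Na2EDTA, pH 7.00, incubated at 37° C for 0 and 18 h. A260 monitored while heating at 1° C min^−1 over 40-110° C; Tm from d(A260)/dT maxima, ΔTm versus drug-free DNA.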

[10] = tested on: KB (oral cancer) cell line; assay: In vitro anticancer activity, SRB assay, KB; assay type: cell-based, human; settings: for GI50: mean of three determinations
Summary of the method: as §2

SNB-19 cell line = settings: comparative data, hybrids without piperazine; read-out: GI50 SNB-19 (hybrides with out piperazine); cited from earlier work
[11] = tested on: PC 3 (prostate cancer) cell line; settings: comparative data, hybrids without piperazine; read-out: GI50 PC 3 (hybrides with out piperazine); cited from earlier work
[12] = tested on: HOP 62 (lung cancer) cell line; settings: comparative data, hybrids without piperazine; read-out: GI50 HOP 62 (hybrides with out piperazine); cited from earlier work
A498 cell line = settings: comparative data, hybrids without piperazine; read-out: GI50 A498 (hybrides with out piperazine); cited from earlier work
[13] = tested on: IGROV1 (ovary cancer) cell line; settings: comparative data, hybrids without piperazine; read-out: GI50 IGROV1 (hybrides with out piperazine); cited from earlier work
[14] = tested on: MCF 7 (breast cancer) cell line; settings: comparative data, hybrids without piperazine; read-out: GI50 MCF 7 (hybrides with out piperazine); cited from earlier work
[15] = tested on: A 549 (lung cancer) cell line; settings: comparative data, hybrids without piperazine; read-out: GI50 A 549 (hybrides with out piperazine); cited from earlier work
[16] = tested on: Colo 205 (colon cancer) cell line; settings: comparative data, hybrids without piperazine; read-out: GI50 Colo 205 (hybrides with out piperazine); cited from earlier work
[17] = tested on: duplex-form calf thymus DNA (CT-DNA); settings: comparative data, hybrids without piperazine, cited from earlier work
[18] = Homo sapiens, A2780, 48 h, 48 h drug exposure, SRB
[19] = Homo sapiens, SiHa, 48 h, 48 h drug exposure, SRB
[20] = Homo sapiens, MCF7, 48 h, 48 h drug exposure, SRB
[21] = Homo sapiens, 48 h, 48 h drug exposure, SRB
[22] = 48 h drug exposure, SRB, mean of three determinations

Row | Structure (SMILES) | GI50 [1] | CC50 [2, 18] | LC50 (concentration causing 50% cell death) [4, 19] | LC50 (concentration causing 50% cell death) [5, 20] | GI50 ([6]; 48 h drug exposure, SRB) | CC50 ([7]; Homo sapiens, COLO 205, 48 h) | CC50 [8, 21] | ΔTm after incubation at 37° C. for 0 h [9] | ΔTm after incubation at 37° C. for 18 h [9] | GI50 (SNB-19 cell line) | GI50 [11] | GI50 [12] | GI50 (A498 cell line) | GI50 [13] | GI50 [14] | GI50 [15] | GI50 [16] | ΔTm after incubation at 37° C. for 0 h (PBD hybrids with out piperizine) [17] | ΔTm after incubation at 37° C. for 18 h (PBD hybrids with out piperizine) [17] | also measured
1 | COc1cc2c(cc1OCCCN1CCN(CCCOc3cccc(-c4nc5ccccc5o4)c3)CC1)N=C[C@@H]1CCCN1C2=O [Compound 9k, 7-Methoxy-8-[3-(4-{3-[3(1,3-benzoxazol-2-yl)-phenoxy]propyl}piperazin-1-yl)propyl]oxy-(11aS)-1,2,3,11a-tetrahydro-5H-pyrrolo[2,1-c][1,4]benzodiazepin-5-one] | ≤ 170 nM | 2160 nM | 27800 nM | 2600 nM | 10 nM | > 100000 nM | 26000 nM | 9.7 °C | 10.2 °C |  |  |  |  |  |  |  |  |  |  | GI50 ([2]; Homo sapiens, A2780, 48 h, read-out: GI50 A 2780, 48 h drug exposure, SRB): 86 nM; GI50 ([3]; Homo sapiens, A549, 48 h, read-out: GI50 A 549, 48 h drug exposure, SRB): < 10 nM; CC50 ([3]; Homo sapiens, A549, 48 h, read-out: LC50 A 549, 50% cell death, 48 h drug exposure, SRB): > 100000 nM; GI50 ([4]; Homo sapiens, SiHa, 48 h, read-out: GI50 SiHa, 48 h drug exposure, SRB): 130 nM; GI50 ([5]; Homo sapiens, MCF7, 48 h): < 10 nM; LC50 ([6]; Homo sapiens, HOP-62, 48 h, read-out: LC50 HOP 62, 50% cell death, 48 h drug exposure, SRB): 25000 nM; GI50 ([7]; Homo sapiens, COLO 205, 48 h, read-out: GI50 Colo 205, 48 h drug exposure, SRB): 170 nM; GI50 ([8]; Homo sapiens, 48 h): < 10 nM; GI50 ([10]; Homo sapiens, 48 h, read-out: GI50 KB, 48 h drug exposure, SRB): 110 nM
2 | COc1cc2c(cc1OCCCCN1CCN(CCCCOc3ccc(-c4nc5ccccc5s4)cc3)CC1)N=C[C@@H]1CCCN1C2=O [Compound 9l, 7-Methoxy-8-[4-(4-{4-[4(1,3-benzothiazol-2-yl)-phenoxy]butyl}piperazin-1-yl)butyl]oxy-(11aS)-1,2,3,11a-tetrahydro-5H-pyrrolo[2,1-c][1,4]benzodiazepin-5-one] | ≤ 125 nM | 2100 nM | 28000 nM | 160 nM | 110 nM | > 100000 nM | 2100 nM | 11.5 °C | 11.8 °C |  |  |  |  |  |  |  |  |  |  | GI50 ([2]; read-out: GI50 A 2780, 48 h drug exposure, SRB): 99 nM; CC50 ([3]; human, 48 h): 30000 nM; GI50 ([3]; read-out: GI50 A 549, 48 h drug exposure, SRB): < 10 nM; GI50 ([4]; read-out: GI50 SiHa, 48 h drug exposure, SRB): 125 nM; GI50 [5, 22]: < 10 nM; CC50 ([6]; human, 48 h): 2500 nM; GI50 ([7]; read-out: GI50 Colo 205, 48 h drug exposure, SRB): < 10 nM; GI50 [8, 22]: < 10 nM; GI50 ([10]; 48 h drug exposure, SRB, listed as 91, read-out: GI50 KB): 110 nM; GI50 ([10]; 48 h drug exposure, SRB, read-out: GI50 KB): 110 nM; CC50 ([10]; Homo sapiens, 48 h, read-out: LC50 KB, 50% cell death, 48 h drug exposure, SRB): 2000 nM
3 | COc1cc2c(cc1OCCCCOc1ccc(-c3nc4ccccc4s3)cc1)N=C[C@@H]1CCCN1C2=O [Compound 20a] |  |  |  |  |  |  |  |  |  | 1520 nM | 290 nM | 406 nM | 2020 nM | 2420 nM | 320 nM | 2630 nM | 340 nM | 0.5 °C | 0.5 °C | 
4 | COc1cc(-c2nc3ccccc3s2)ccc1OCCCCOc1cc2c(cc1OC)C(=O)N1CCC[C@H]1C=N2 [Compound 20b] |  |  |  |  |  |  |  |  |  | 1610 nM | 410 nM | 1410 nM | 1600 nM | 3060 nM | 400 nM | 2660 nM | 690 nM | 0.5 °C | 0.5 °C | 
5 | COc1cc2c(cc1OCCCCCOc1ccc(-c3nc4ccccc4s3)cc1)N=C[C@@H]1CCCN1C2=O [Compound 20c] |  |  |  |  |  |  |  |  |  | 2940 nM | 230 nM | 412 nM | 2260 nM | 2690 nM | 330 nM | 2590 nM | 380 nM | 4.1 °C | 4.3 °C | 
6 | COc1cc(-c2nc3ccccc3s2)ccc1OCCCCCOc1cc2c(cc1OC)C(=O)N1CCC[C@H]1C=N2 [Compound 20d] |  |  |  |  |  |  |  |  |  | 210 nM | 40 nM | 40 nM | 170 nM | 344 nM | 10 nM | 240 nM | 60 nM | 6.2 °C | 6.3 °C | 
